Here are results for 16 molecules from patent US20140105921A1, “Prodrugs of Peptide Epoxy Ketone Protease Inhibitors” (Onyx Therapeutics, Inc., priority 2012, published 2014).

The target in one assay is c20s (Homo sapiens, UniProt P20618+P28074). The experiment in a line: Purified PI, IC50 against c20s. Format: biochemical.
The target of another assay is i20s (Homo sapiens, UniProt P20618+P28062). The assay is described as follows: Purified PI, IC50 against i20s. Format: biochemical.
[1] abbreviates: IC50 60 minute point c20s, Table H, 60 minute point.
The mark [2] stands for this setting: Table H, read-out: IC50 Slope c20s.
Setting [3] is: IC50 60 minute point i20s, Table H, 60 minute point.
The mark [4] stands for this setting: Table H, read-out: IC50 Slope i20s.
The mark [5] stands for this setting: Table G, read-out: IC50 Slope c20s.
Setting [6] is: Table G, value marked *: did not converge, read-out: IC50 Slope i20s.
Where [7] appears, read: Table G, value marked *: did not converge, read-out: IC50 Slope c20s.
Setting [8] is: Table G, read-out: IC50 Slope i20s.

Like-named read-outs stand apart in the source and are kept apart here.

Turning to `COC[C@H](NC(=O)c1cnc(C)s1)C(=O)N[C@@H](COC)C(=O)N[C@@H](Cc1ccccc1)C(=O)[C@](C)(O)COS(=O)(=O)c1ccc(C)cc1`, the IC50 – broadly, the concentration at which inhibition is half-maximal – came out at 748 nM against c20s (setting [1]), 141 nM at c20s (setting [2]), 637 nM on i20s (setting [3]) and 252 nM on i20s (setting [4]).

For the molecule `CC(=O)N/N=C(/[C@H](CC(C)C)NC(=O)[C@H](Cc1ccccc1)NC(=O)[C@H](CC(C)C)NC(=O)[C@H](CCc1ccccc1)NC(=O)CN1CCOCC1)[C@@]1(C)CO1`, the IC50 at c20s (setting [5]) stood at 678 nM; on i20s (setting [6]), 2180 nM.

As for `CO/N=C(/[C@H](CC(C)C)NC(=O)[C@H](Cc1ccccc1)NC(=O)[C@H](CC(C)C)NC(=O)[C@H](CCc1ccccc1)NC(=O)CN1CCOCC1)[C@@]1(C)CO1`, the IC50 at c20s (setting [7]) is 2610 nM.

On to `CC(=O)OC[C@@](C)(O)C(=O)[C@H](CC(C)C)NC(=O)[C@H](Cc1ccccc1)NC(=O)[C@H](CC(C)C)NC(=O)[C@H](CCc1ccccc1)NC(=O)CN1CCOCC1`, for which the values for the IC50 at c20s (setting [7]) and at i20s (setting [8]) were 2440 nM and 8190 nM, respectively.

As to `CC(C)C[C@H](NC(=O)[C@H](CCc1ccccc1)NC(=O)CN1CCOCC1)C(=O)N[C@@H](Cc1ccccc1)C(=O)N[C@@H](CC(C)C)C(=O)[C@](C)(O)COC(=O)c1c(Cl)cccc1Cl`, the IC50 on i20s (setting [8]) stood at 660 nM.

As for `COC[C@H](NC(=O)c1cnc(C)s1)C(=O)N[C@@H](COC)C(=O)N[C@@H](Cc1ccccc1)C(=O)[C@](C)(O)COC(=O)c1c(Cl)cccc1Cl`, the “IC50 60 minute point c20s” value at c20s (Table H, 60 minute point) was “inactive”. Further, the “IC50 60 minute point i20s” value at i20s (Table H, 60 minute point) was “inactive”.

As to `CC(C)C[C@H](NC(=O)[C@H](CCc1ccccc1)NC(=O)CN1CCOCC1)C(=O)N[C@@H](Cc1ccccc1)C(=O)N[C@@H](CC(C)C)C(=O)[C@](C)(O)COS(C)(=O)=O`, the IC50 on c20s (setting [5]) was 37.7 nM; on i20s (setting [8]), 98.7 nM.

For the molecule `CC(C)C[C@H](NC(=O)[C@H](CCc1ccccc1)NC(=O)CN1CCOCC1)C(=O)N[C@@H](Cc1ccccc1)C(=O)N[C@@H](CC(C)C)C(=O)[C@](C)(O)CCl`, the IC50 was 615 nM on c20s (setting [5]) and 143 nM on i20s (setting [8]).

For `CC(C)C[C@H](NC(=O)[C@H](CCc1ccccc1)NC(=O)CN1CCOCC1)C(=O)N[C@@H](Cc1ccccc1)C(=O)N[C@@H](CC(C)C)C(=O)[C@](C)(O)COn1nnc2ccccc21`, the IC50 at c20s (setting [7]) came out at 2470 nM; on i20s (setting [6]), 2820 nM.

As for `COC[C@H](NC(=O)c1cnc(C)s1)C(=O)N[C@@H](COC)C(=O)N[C@@H](Cc1ccccc1)C(=O)[C@](C)(O)COS(=O)(=O)Cc1ccccc1` [drawing 374], the IC50 on c20s (setting [2]) is 95.4 nM.

Turning to `CC(C)C[C@H](NC(=O)[C@H](CCc1ccccc1)NC(=O)CN1CCOCC1)C(=O)N[C@@H](Cc1ccccc1)C(=O)N[C@@H](CC(C)C)/C(=N/O)[C@@]1(C)CO1`, the IC50 at c20s (setting [7]) came out at 279 nM; at i20s (setting [6]), 2290 nM.

In the case of `Cc1ccc(S(=O)(=O)OC[C@@](C)(O)C(=O)[C@H](CC(C)C)NC(=O)[C@H](Cc2ccccc2)NC(=O)[C@H](CC(C)C)NC(=O)[C@H](CCc2ccccc2)NC(=O)CN2CCOCC2)cc1`, the IC50 at c20s (setting [5]) is 73.7 nM; at i20s (setting [8]), 316 nM.

On to `CC(C)C[C@H](NC(=O)[C@H](CCc1ccccc1)NC(=O)C[N+]1(COC(=O)C(C)(C)C)CCOCC1)C(=O)N[C@@H](Cc1ccccc1)C(=O)N[C@@H](CC(C)C)C(=O)[C@@]1(C)CO1`, for which the IC50 amounted to 8.91 nM on c20s (setting [5]) and 49.8 nM on i20s (setting [8]).

`COCCOCCOCCOCCC(=O)N/N=C(/[C@H](CC(C)C)NC(=O)[C@H](Cc1ccccc1)NC(=O)[C@H](CC(C)C)NC(=O)[C@H](CCc1ccccc1)NC(=O)CN1CCOCC1)[C@@]1(C)CO1`: the IC50 on i20s (setting [6]) was 3240 nM.

For `COC[C@H](NC(=O)c1cnc(C)s1)C(=O)N[C@@H](COC)C(=O)N[C@@H](Cc1ccccc1)C(=O)[C@](C)(O)COS(=O)(=O)C1CCOCC1` [drawing 373], the IC50 worked out at 193 nM on c20s (setting [2]) and 278 nM on i20s (Table H, value marked * (Table G: did not converge), read-out: IC50 Slope i20s).

On to `COC[C@H](NC(=O)c1cnc(C)s1)C(=O)N[C@@H](COC)C(=O)N[C@@H](Cc1ccccc1)C(=O)[C@](C)(O)COS(C)(=O)=O`, for which the 50% inhibitory concentration (IC50) was found to be 459 nM on c20s (setting [1]), 103 nM at c20s (setting [2]), 614 nM against i20s (setting [3]) and 179 nM at i20s (setting [4]).
